In a compilation of properties of binary mixtures (doi:10.1007/s10953-008-9260-8):

Test: xn = mol fraction of the nth substance listed
Conditions: 101 kPa

CCCC[n+]1ccn(C)c1.F[P-](F)(F)(F)(F)F + CCCC[n+]1ccn(C)c1.F[B-](F)(F)F
viscosity (298.15 K, x1 = 0.0568): 106.8 mPa·s | viscosity (298.15 K, x1 = 0.2095): 128.1 mPa·s | viscosity (298.15 K, x1 = 0.3012): 137.4 mPa·s | viscosity (298.15 K, x1 = 0.3825): 146.7 mPa·s | viscosity (298.15 K, x1 = 0.4647): 157.7 mPa·s | viscosity (298.15 K, x1 = 0.4999): 169.3 mPa·s | viscosity (298.15 K, x1 = 0.5385): 168.5 mPa·s | viscosity (298.15 K, x1 = 0.5974): 182.5 mPa·s | viscosity (298.15 K, x1 = 0.6928): 201.4 mPa·s | viscosity (298.15 K, x1 = 0.945): 249 mPa·s | viscosity (298.15 K, x1 = 1): 279 mPa·s | viscosity (299.15 K, x1 = 0.0568): 101.3 mPa·s | viscosity (299.15 K, x1 = 0.3012): 130.1 mPa·s | viscosity (299.15 K, x1 = 0.3825): 139.9 mPa·s | viscosity (299.15 K, x1 = 0.4647): 145.6 mPa·s | viscosity (299.15 K, x1 = 0.4999): 159.7 mPa·s | viscosity (299.15 K, x1 = 0.5385): 159.6 mPa·s | viscosity (299.15 K, x1 = 0.5974): 172.4 mPa·s | viscosity (299.15 K, x1 = 0.6928): 190.1 mPa·s | viscosity (299.15 K, x1 = 0.833): 214 mPa·s | viscosity (299.15 K, x1 = 0.8877): 224 mPa·s | viscosity (299.15 K, x1 = 0.945): 234 mPa·s | viscosity (301.15 K, x1 = 0.2095): 109.5 mPa·s | viscosity (301.15 K, x1 = 0.3012): 117 mPa·s | viscosity (301.15 K, x1 = 0.3825): 125.6 mPa·s | viscosity (301.15 K, x1 = 0.4647): 131.8 mPa·s | viscosity (301.15 K, x1 = 0.5385): 142.9 mPa·s | viscosity (301.15 K, x1 = 0.5974): 156.7 mPa·s | viscosity (301.15 K, x1 = 0.6928): 169.9 mPa·s | viscosity (301.15 K, x1 = 0.833): 190.2 mPa·s | viscosity (301.15 K, x1 = 0.8877): 199 mPa·s | viscosity (301.15 K, x1 = 0.945): 208 mPa·s | viscosity (302.15 K, x1 = 0.1034): 94.4 mPa·s | viscosity (302.15 K, x1 = 0.2095): 103.9 mPa·s | viscosity (302.15 K, x1 = 0.3012): 111.1 mPa·s | viscosity (302.15 K, x1 = 0.4999): 135.8 mPa·s | viscosity (302.15 K, x1 = 0.5385): 134.8 mPa·s | viscosity (302.15 K, x1 = 0.5974): 145.4 mPa·s | viscosity (302.15 K, x1 = 0.6928): 160.9 mPa·s | viscosity (302.15 K, x1 = 0.833): 179.5 mPa·s | viscosity (302.15 K, x1 = 0.8877): 187.7 mPa·s | viscosity (302.15 K, x1 = 0.945): 196.2 mPa·s | viscosity (302.15 K, x1 = 1): 218 mPa·s | viscosity (303.15 K, x1 = 0.1034): 89.7 mPa·s | viscosity (303.15 K, x1 = 0.2095): 98.8 mPa·s | viscosity (303.15 K, x1 = 0.3012): 105.4 mPa·s | viscosity (303.15 K, x1 = 0.3825): 113 mPa·s | viscosity (303.15 K, x1 = 0.4647): 118.1 mPa·s | viscosity (303.15 K, x1 = 0.4999): 128.2 mPa·s | viscosity (303.15 K, x1 = 0.5974): 137.6 mPa·s | viscosity (303.15 K, x1 = 0.6928): 155.3 mPa·s | viscosity (303.15 K, x1 = 0.833): 169.7 mPa·s | viscosity (303.15 K, x1 = 0.8877): 177.3 mPa·s | viscosity (303.15 K, x1 = 0.945): 185.4 mPa·s | viscosity (303.15 K, x1 = 1): 206 mPa·s | viscosity (304.15 K, x1 = 0.0568): 79 mPa·s | viscosity (304.15 K, x1 = 0.1034): 85.5 mPa·s | viscosity (304.15 K, x1 = 0.2095): 94.2 mPa·s | viscosity (304.15 K, x1 = 0.3012): 100.2 mPa·s | viscosity (304.15 K, x1 = 0.3825): 107.1 mPa·s | viscosity (304.15 K, x1 = 0.4647): 111.8 mPa·s | viscosity (304.15 K, x1 = 0.5385): 121.6 mPa·s | viscosity (304.15 K, x1 = 0.5974): 130.5 mPa·s | viscosity (304.15 K, x1 = 0.6928): 144.1 mPa·s | viscosity (304.15 K, x1 = 0.833): 160.5 mPa·s | viscosity (304.15 K, x1 = 0.8877): 167.5 mPa·s | viscosity (304.15 K, x1 = 0.945): 175.3 mPa·s | viscosity (304.15 K, x1 = 1): 194.8 mPa·s | viscosity (305.15 K, x1 = 0.0568): 75.3 mPa·s | viscosity (305.15 K, x1 = 0.1034): 81.4 mPa·s | viscosity (305.15 K, x1 = 0.2095): 89.5 mPa·s | viscosity (305.15 K, x1 = 0.3012): 95.3 mPa·s | viscosity (305.15 K, x1 = 0.3825): 102.1 mPa·s | viscosity (305.15 K, x1 = 0.4647): 106.9 mPa·s | viscosity (305.15 K, x1 = 0.5385): 114.9 mPa·s | viscosity (305.15 K, x1 = 0.5974): 123.9 mPa·s | viscosity (305.15 K, x1 = 0.833): 154.5 mPa·s | viscosity (305.15 K, x1 = 0.8877): 159 mPa·s | viscosity (305.15 K, x1 = 1): 183.8 mPa·s | viscosity (307.15 K, x1 = 0.0568): 68.5 mPa·s | viscosity (307.15 K, x1 = 0.1034): 74.3 mPa·s | viscosity (307.15 K, x1 = 0.2095): 81.3 mPa·s | viscosity (307.15 K, x1 = 0.3012): 86.4 mPa·s | viscosity (307.15 K, x1 = 0.4647): 96.4 mPa·s | viscosity (307.15 K, x1 = 0.4999): 103.9 mPa·s | viscosity (307.15 K, x1 = 0.5385): 104.1 mPa·s | viscosity (307.15 K, x1 = 0.5974): 111.8 mPa·s | viscosity (307.15 K, x1 = 0.6928): 123.3 mPa·s | viscosity (307.15 K, x1 = 0.8877): 142.2 mPa·s | viscosity (307.15 K, x1 = 1): 164.5 mPa·s | viscosity (308.15 K, x1 = 0.0568): 65.39 mPa·s | viscosity (308.15 K, x1 = 0.1034): 70.9 mPa·s | viscosity (308.15 K, x1 = 0.3012): 82.4 mPa·s | viscosity (308.15 K, x1 = 0.4647): 91.9 mPa·s | viscosity (308.15 K, x1 = 0.4999): 98.4 mPa·s | viscosity (308.15 K, x1 = 0.5974): 106 mPa·s | viscosity (308.15 K, x1 = 0.6928): 116.9 mPa·s | viscosity (308.15 K, x1 = 0.833): 129.2 mPa·s | viscosity (308.15 K, x1 = 0.8877): 134.8 mPa·s | viscosity (308.15 K, x1 = 0.945): 142.5 mPa·s
